In patent US8227469B2, “Vanilloid receptor ligands and their use in treatments” (Amgen Inc., priority 2004, dated 2012):

Compound | melting point
C[C@H](c1ccc(F)cc1)N1CCN(c2cc(Nc3ccc4cccnc4c3)ncn2)CC1 [Example 4, (6-{4-[(1R)-1-(4-Fluorophenyl)-ethyl]-piperazin-1-yl}-pyrimidin-4-yl)-quinolin-7-yl-amine] | 206 to 207 °C
C[C@@H](c1ccc(F)cc1)N1CCN(c2cc(Nc3ccc4cccnc4c3)ncn2)CC1 [Example 5, (6-{4-[(1S)-1-(4-Fluorophenyl)-ethyl]-piperazin-1-yl}-pyrimidin-4-yl)-quinolin-7-yl-amine] | 206 to 207 °C
CC(=O)Nc1nc2c(Oc3cc(C4=CCC(C(C)(C)C)CC4)ncn3)cccc2s1 (stereo not drawn) [Example 8, N-{4-[6-(4-tert-Butyl-cyclohex-1-enyl)-pyrimidin-4-yloxy]-benzothiazol-2-yl}-acetamide] | > 200 °C (dec.)
